Source: patent publication US20070027143A1, “Novel substituted 2,3-benzodiazepine derivatives” (priority 2003, published 2007)
Marks after values point to notes of the source that are not given here.

Experiments:
AMPA receptors = assay: Inhibition of AMPA induced spreading depression in isolated chicken retina; assay type: cell-based; conditions: AMPA (5 μM)
Summary of the method: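 Isolated chicken retina; spreading depression evoked by 5 μM AMPA. Antagonism read as prolongation of the latency to spreading-depression onset.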

AMPA/kainate receptors = assay: Inhibition of AMPA induced whole-cell current in acutely isolated cerebellar Purkinje cells (patch clamp); assay type: cell-based; conditions: 5 μM AMPA, read-out: Inhibition of the ion-currents caused by 5 μM AMPA, IC50
Summary of the method: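 Whole-cell patch-clamp on acutely isolated cerebellar Purkinje cells; current evoked by 5 μM AMPA, with compound activity measured as inhibition of this AMPA-induced current.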

CD1 mice [1] = assay: Anticonvulsant activity, pentetrazole induced seizures; assay type: in vivo; conditions: Mus musculus; po.; read-out: Pentetrazol ED50
Summary of the method: (§1)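 Male CD1 mice (10 per dose) received test compounds orally at three dose levels, usually 60 min before chemical induction of clonic-tonic seizures and lethality.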

CD1 mice [2] = assay: Anticonvulsant activity, bemegride induced seizures; assay type: in vivo; conditions: Mus musculus; po.; read-out: Bemegride ED50
Summary of the method: as §1

CD1 mice [3] = assay: Anticonvulsant activity, nicotine induced seizures; assay type: in vivo; conditions: Mus musculus; po.
Summary of the method: as §1

CD1 mice [4] = assay: Anticonvulsant activity, 3-mercapto-propionic acid induced seizures; assay type: in vivo; conditions: Mus musculus; po.; read-out: 3-MPA ED50
Summary of the method: as §1

CD1 mice [5] = assay: Muscle relaxant activity, inclined screen test; assay type: in vivo; conditions: Mus musculus, ip
CD1 mice [6] = assay: Muscle relaxant activity, rotarod test; assay type: in vivo; conditions: Mus musculus, ip
rats = assay: Inhibition of focal ischemia, middle cerebral artery occlusion (MCAO) test; assay type: in vivo
Description: The focal anti-ischemic activity of the compounds of formula (I) or (II) of the present invention was measured by the “middle cerebral artery occlusion” (MCAO) test (Bartus Stroke 11:2265 (1994) and Sydserff et al, Brit. J. Pharmacol. 114:1631 (1995)). […] After a histological process (TTC staining) 24 h later, the infarcted area was determined by a computer assisted scanner program and was compared to the results obtained in a control group treated with the vehicle.

Lewis rats = assay: Autoimmune encephalomyelitis model, histological symptoms; assay type: in vivo; conditions: day 24 after immunization
Description: 5-15 animals were used in each group. Their weights were 160-180 g (Lewis rats, female) and 180-220 g (Lewis rats, male). The activity of the compounds was determined according to the symptom score values, and compared to those of the control group (see Table 6). Histopathological investigations were carried out on the brain stem, the spinal cord, and the sciatic nerve (Gijbels et al., J. Clin. Invest. 94:2177 (1994)) using 5-10 animal/group.
Compounds of the invention were further investigated in the autoimmune encephalomyelitis model in rats as outlined in this description before, with the variance that 10 animals were used in each group, of weights 140-160 g (Lewis rats, female).

CD1 mice [7] = assay: Anti-tremor effect, oxotremorine induced tremor; assay type: in vivo; conditions: for ED50: Mus musculus, po., Litchfield-Wilcoxon, limits in brackets, read-out: ED50, tremor induced by Oxotremorin 1 mg/kg ip.
CD1 mice [8] = assay: Anti-tremor effect, GYKI 20039 induced tremor; assay type: in vivo; conditions: Mus musculus; po., Litchfield-Wilcoxon, limits in brackets; read-out: ED50, tremor induced by GYKI 20039 10 mg/kg ip.
BN rats = assay: Bronchial hyperresponsiveness of ovalbumin sensitized, antigen challenged BN rats (tracheal rings, acetylcholine); assay type: in vivo; conditions: 3.0 mg/kg po, 2 hours pre-challenge, mean ± SE
Text: Bronchial hyperresponsiveness (BHR) and airway eosinophilia (AEP) are characteristic features of bronchial asthma. BHR is typified by an exaggerated response to a wide variety of stimuli that can induce an increased resistance to airflow in the airways. AEP is a result of prolonged eosinophil infiltration, mast cell, and T cell activation in the airways. In actively (e.g., ovalbumin) immunized rats (e.g., Brown Norway [BN] strain), repeated sensitization followed by antigenic challenge results in lung eosinophilia and bronchial hyperresponsiveness to different spasmogens (e.g., acetylcholine). This is the most frequently employed model for studying potential anti-asthmatic effects of new chemical entities.
BN rats were actively immunized with allergen (ovalbumin). On day one, rats were sensitized with the subcutaneous administration of ovalbumin suspended in Al(OH)3 (2.5 μg ovalbumin +20 mg Al(OH)3 in 0.5 ml saline). Booster injections (same dose and same route) were given at day 14 and 21. Simultaneously at each occasion 0.25 ml of Bordatella pentussis vaccine was injected intraperitoneally. On day 28, animals were challenged by inhalation of the antigen (vaporized 1% OVA solution for 1 hour). Test compounds were administered orally 2 hours pre-challenge.
48 hours following challenge, they were sacrificed by an overdose of urethane (4-5 ml of 15% urethane given i.p.), bronchoalveolar lavage fluid (BALF) was obtained, and tracheae dissected from the animals. Eosinophil cell count (cells/ml BALF) was determined manually using a selective stain for eosinophils and counting the cells in a Buerker chamber. BHR was determined using tracheal rings suspended in an organ bath. After an equilibration period of 30 minutes, cumulative concentration response curves to acetylcholine were determined. Maximal response of control (unchallenged, non-treated) tracheal rings is obtained at 10^−3 M acetylcholine. The height of this response is defined as 100%. All other contractions are expressed as a percentage and related to the control response.

[9] = 2 mg/kg iv. 6x in every 30 min, first treatment 120 min after occlusion
[10] = 2 mg/kg iv. 6x in every 30 min, first treatment 180 min after occlusion

| Compound | IC50 (AMPA receptors) [nM] | IC50 (AMPA/kainate receptors) [nM] | ED50 (CD1 mice [1]) [mg/kg] | ED50 (CD1 mice [2]) [mg/kg] | ED50 (CD1 mice [3]) [mg/kg] | ED50 (CD1 mice [4]) [mg/kg] | ED50 (CD1 mice [5]) [mg/kg] | ED50 (CD1 mice [6]) [mg/kg] | Histological (histopathological) symptoms (change, %) (Lewis rats; 1.875 mg/kg ip., female rats) [%] | Histological (histopathological) symptoms (change, %) (Lewis rats; 3.75 mg/kg ip., female rats) | ED50 (CD1 mice [7]) [mg/kg] | ED50 (CD1 mice [8]) [mg/kg] | MAX: relative contraction compared to the control at a maximal Ach concentration (BN rats) [%] | pEC50 of acetylcholine (BN rats) | Decrease of the infracted area in % compared to that of the control (rats; [9]) | Decrease of the infracted area in % compared to that of the control (rats; [10]) | other results |
| --- | --- | --- | --- | --- | --- | --- | --- | --- | --- | --- | --- | --- | --- | --- | --- | --- | --- |
| Cc1nnc(N2N=C(c3ccc(N)cc3)c3cc4c(cc3C[C@H]2C)OCO4)s1 [Example 86, (R)-5-(4-Aminophenyl)-8-methyl-7-(5-methyl-1,3,4-thiadiazol-2-yl)-8,9-dihydro-7H-1,3-dioxolo-[4,5-h][2,3]benzodiazepine] | 420 | 60 | 10 | 11.2 | 16.5 | 4 | 3.9 | 0.8 | −15 | −20% | 4.3 | 6.8 | 81 ± 14 | 4.95 ± 0.59 −log M | – | – | Decrease of the infracted area in % compared to that of the control (rats; 1 mg/kg iv. 6x in every 30 min, first treatment 180 min after occlusion): 35* %; Neuroprotective activity when administered 3 h after the occlusion (rats; result in words): significant activity; Histological symptoms (change, %) (Lewis rats; 1.875 mg/kg ip., male rats): −25%; Histological symptoms (change, %) (Lewis rats; 3.75 mg/kg ip., male rats): +4%; Histological symptoms (change, %) (Lewis rats; 7.5 mg/kg ip., female rats): −22%; Histological symptoms (change, %) (Lewis rats; 7.5 mg/kg ip., male rats): +1%; Histological symptoms (change, %) (Lewis rats; 15 mg/kg ip., female rats): −53%; Histological symptoms (change, %) (Lewis rats; 15 mg/kg ip., male rats): −66%; Anti-tremor activity compared to the reference compounds (CD1 mice [7]; oxotremorine, GYKI 20039 and harmaline, result in words): more active than the reference compounds GYKI 53773 and GYKI 52466 |
| Cc1nnc(N2N=C(c3ccc(N)c(C)c3)c3cc4c(cc3C[C@H]2C)OCO4)s1 [Example 119, (R)-5-(4-amino-3-methylphenyl)-8-methyl-7-(5-methyl-1,3,4-thiadiazol-2-yl)-8,9-dihydro-7H-1,3-dioxolo-[4,5-h][2,3]benzodiazepine] | 69 | 26 | 5 | 5.7 | 6.3 | 3.37 | 2.49 | 0.51 | −8 | +3% | 1.38 | 2.21 | 82 ± 7 | 4.35 ± 0.36 −log M | 56* % | 44** % | Decrease of the infracted area in % compared to that of the control (rats; 0.5 mg/kg iv. 6x in every 30 min, first treatment 120 min after occlusion): 7%; Decrease of the infracted area in % compared to that of the control (rats; 1 mg/kg iv. 6x in every 30 min, first treatment 120 min after occlusion): 38%; Decrease of the infracted area in % compared to that of the control (rats; 1.5 mg/kg iv. 6x in every 30 min, first treatment 120 min after occlusion): 51* %; Decrease of the infracted area in % compared to that of the control (rats; 1.5 mg/kg iv. 6x in every 30 min, first treatment 180 min after occlusion): 21%; Decrease of the infracted area in % compared to that of the control (rats; 2.0 mg/kg iv. 6x in every 30 min, first treatment 240 min after occlusion): 21%; Histopathological symptoms (change %) (Lewis rats; 0.2 mg/kg i.p., female rats): +2%; Histopathological symptoms (change %) (Lewis rats; 0.5 mg/kg i.p., female rats): −13%; Histopathological symptoms (change %) (Lewis rats; 0.5 mg/kg p.o., female rats): −16%; Histopathological symptoms (change %) (Lewis rats; 1.0 mg/kg i.p., female rats): −3%; Histopathological symptoms (change %) (Lewis rats; 1.0 mg/kg p.o., female rats): −21%; Histopathological symptoms (change %) (Lewis rats; 1.875 mg/kg p.o., female rats): −42%; Histopathological symptoms (change %) (Lewis rats; 3.75 mg/kg p.o., female rats): −32% |
| CC(=O)N1N=C(c2ccc(N)cc2)c2cc3c(cc2C[C@H]1C)OCO3 [GYKI 53773, (R)-7-acetyl-5-(4-aminophenyl)-8,9-dihydro-8-methyl-7H-1,3-dioxolo[4,5-h][2,3]benzodiazepine, reference compound] | 1200 | 1570 | 16.8 | 23.9 | 22.7 | 17.1 | 13.4 | 2.3 | – | – | 5.6 | 10.6 | 85 ± 43 | – | 49** % | 26% | Decrease of the infracted area in % compared to that of the control (rats; 2 mg/kg iv. 6x in every 30 min, first treatment 30 min after occlusion): 47* %; Histological symptoms (change, %) (Lewis rats; 30 mg/kg ip., female rats): −16%; Histological symptoms (change, %) (Lewis rats; 30 mg/kg ip., male rats): +34% |
